# Reference: paper PMC3774784 (Bioorganic & medicinal chemistry letters, 2011)
# Read-outs that look alike come from different tables or passages of the source.
# Experiments:
# human VEGFR2 kinase = human VEGFR2 kinase (Homo sapiens, UniProt P35968); test: KDR ELISA assay; format: biochemical
# KDR [1] = conditions: read-out: Reported KDR Inhibition IC50; cited from earlier work
# KDR [2] = conditions: read-out: reported IC50 value; final ATP concentration 2 μM; cited from earlier work
# Sequence of human VEGFR2 kinase (P35968 790-1356 limits assumed): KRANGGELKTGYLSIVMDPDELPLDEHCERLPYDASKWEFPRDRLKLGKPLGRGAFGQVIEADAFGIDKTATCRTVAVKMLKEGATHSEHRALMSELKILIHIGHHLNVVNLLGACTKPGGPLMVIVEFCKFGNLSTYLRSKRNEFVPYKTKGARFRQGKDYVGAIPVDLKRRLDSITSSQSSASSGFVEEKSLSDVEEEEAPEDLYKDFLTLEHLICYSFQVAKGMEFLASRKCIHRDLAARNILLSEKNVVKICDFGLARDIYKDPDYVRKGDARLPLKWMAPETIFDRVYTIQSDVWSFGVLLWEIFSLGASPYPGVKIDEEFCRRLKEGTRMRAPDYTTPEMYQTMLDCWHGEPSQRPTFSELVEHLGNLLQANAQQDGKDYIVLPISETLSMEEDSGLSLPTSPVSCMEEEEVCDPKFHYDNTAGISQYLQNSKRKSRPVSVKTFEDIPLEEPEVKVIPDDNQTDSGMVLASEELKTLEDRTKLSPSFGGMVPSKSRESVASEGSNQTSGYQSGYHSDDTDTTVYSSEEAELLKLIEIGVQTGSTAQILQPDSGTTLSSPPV
structure (smiles),measurement,setting,value
"COc1ccc(-c2cnc3c(-c4ccsc4)cnn3c2)cc1 [Compound 21, 6-(4-Methoxy-phenyl)-3-thiophen-3-yl-pyrazolo[1,5-a]pyrimidine]",KDR assay activity in words,human VEGFR2 kinase,active
"COc1cc2ncnc(Nc3ccc(Cl)cc3)c2cc1OC [Compound 10, (4-Chloro-phenyl)-(6,7-dimethoxy-quinazolin-4-yl)-amine]",KDR assay activity in words,human VEGFR2 kinase,relatively inactive
same,IC50,KDR [1],0.8 µM
"COc1cc2nccc(Oc3ccc(NC(=O)Nc4ccc(F)cc4F)c(F)c3)c2cc1OC [Ki8751, reference compound]",IC50,"human VEGFR2 kinase; read-out: KDR IC50, 20 μM ATP",0.8 µM
same,IC50,KDR [2],0.0009 µM
"COc1cc2ncnc(Nc3ccc(C)c(F)c3)c2cc1OC [Compound 14, (6,7-Dimethoxy-quinazolin-4-yl)-(3-fluoro-4-methyl-phenyl)-amine]",IC50,human VEGFR2 kinase,2.5 µM
